Tests used:
[1] = target: T1, folate receptor (FR) on FR-positive KB cells (Homo sapiens, UniProt P15328); assay: Relative affinity assay (blocking of 3H-folic acid binding to KB cells); conditions: for IC50: 100 nM 3H-folic acid, KB cells, 15 min on ice, triplicate; for RA (relative affinity): inverse molar ratio to displace 50% of 3H-folic acid, folic acid set to 1
T1 construct: FR-positive KB cells were gently trypsinized; endogenous in cells; host or cells: KB cells
Protocol: The relative affinity of various folate derivatives was determined according to the method described by Westerhoff et al. (Mol. Pharm., 48: 459-471 (1995)) with slight modification. Briefly, FR-positive KB cells were gently trypsinized in 0.25% trypsin/PBS at room temperature for 3 minutes and then diluted in FFRPMI/HIFCS. Following a 5 min 800×g spin and one PBS wash, the final cell pellet was suspended in FFRPMI 1640 (no serum). […] Samples were centrifuged at 10,000×g for 5 min, cell pellets were suspended in buffer, were transferred to individual vials containing 5 mL of scintillation cocktail, and were then counted for radioactivity.
Likewise, values lower than unity reflect weaker affinity, and values higher than unity reflect stronger affinity.
Following a 15-minute incubation at 4° C., cells were rinsed free of unbound material and counted for residual cell-associated radioactivity.

[2] = target: T2, folate receptor (FR) on KB cells (Homo sapiens, UniProt P15328); assay: Concentration-dependent cell uptake (Scatchard analysis); assay type: binding; conditions: 2 hours at 37° C., read-out: KD of binding (Scatchard analysis)
T2 construct: FR-positive KB cells were gently trypsinized; endogenous in cells; host or cells: KB cells
Protocol: KB cells were seeded in 12-well Falcon plates and allowed to form sub-confluent monolayers overnight. Following one rinse with 1 mL of fresh FERPMI/HIFCS, each well received 1 mL of FFRPMI/HIFCS containing increasing concentrations of ^99mTc-EC20. Cells were incubated for 2 hours at 37° C. and then rinsed four times with 1 mL of ice-cold PBS, pH 7.4. The monolayers were dissolved in 0.5 mL of PBS, pH 7.4 containing 1% sodium dodecyl sulfate for 15 min at room temperature and then counted for radioactivity using a Packard gamma counter. Protein content was determined as described above, and final tabulated values were expressed in terms of molecules of EC20 per cell.
The particular KB cells used were determined to bind a maximum of four million molecules of the folate radiopharmaceutical per cell.
This HPLC-purified radiolabeled material (Peak B material) was collected and then added to cultured KB cells.

[3] = system: FR-positive KB tumors; assay: Tissue distribution of 99mTc-EC53, KB tumors (Table 6); assay type: in vivo
Protocol: FR-positive KB tumor cells (0.25×10^6 per animal) were inoculated subcutaneously in the intracapsular region. Fourteen days after tumor cell inoculation, the animals (n=4/group) were injected intravenously with ^99mTc-EC11, ^99mTc-EC13, or ^99mTc-EC14 at the doses (about 12 μg/kg) of the conjugates shown in Table 5 below. Stocks of ^99mTc-EC11, ^99mTc-EC13, and ^99mTc-EC14 solutions were prepared on the day of use as described above. About a 20-fold excess of free folate (about 200 μg/kg) was co-administered to control animals (n=4/group). […] Selected tissues were removed, weighed, and counted in an automatic gamma counter to determine ^99mTc distribution. Uptake of the radiopharmaceutical in terms of percentage injected dose of wet weight tissue (% ID/g) was calculated by reference to standards prepared from dilutions of the injected preparation.
Similar results (see Table 6 below) were obtained with ^99mTc-EC53 (the all D-enantiomer of EC20) using similar protocols except that the dose of ^99mTc-EC53 was about 50 μg/kg and about a 100-fold excess of free folate or cold EC53 was used. […] The accumulation was blocked by co-administration of free folate.

[4] = system: KB tumor; conditions: reported previously; cited from earlier work

T1 sequence (P15328 25-234): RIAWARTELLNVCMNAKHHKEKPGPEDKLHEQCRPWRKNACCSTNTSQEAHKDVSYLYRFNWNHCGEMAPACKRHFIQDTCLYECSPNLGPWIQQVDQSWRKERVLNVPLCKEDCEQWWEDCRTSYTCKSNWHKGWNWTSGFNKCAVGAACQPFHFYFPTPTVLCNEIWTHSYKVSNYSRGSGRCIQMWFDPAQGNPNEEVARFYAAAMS
T2 sequence (P15328 25-234): as above

Q: For `Nc1nc2ncc(CNc3ccc(C(=O)N[C@H](CCC(=O)NC[C@@H]4[NH2+][Re-]56(=[O])[S]C[C@@H](C(=O)O)[N]5C(=O)[C@H](CC(=O)O)[N]6C4=O)C(=O)O)cc3)nc2c(=O)[nH]1` (single isomer, unassigned; isomer 2) [EC20:Re isomer 2], which IC50 [1] is on record?
A: 86 nM

Q: What about the “RA (relative affinity)” value [1] of the same compound?
A: 1.37

Q: And the “RA (relative affinity)” value ([1]; listed as Re-EC20 isomer B)?
A: 1.37

Q: With `Nc1nc2ncc(CNc3ccc(C(=O)NC(CCC(=O)NCC(N)C(=O)NC(CC(=O)O)C(=O)NC(CS)C(=O)O)C(=O)O)cc3)nc2c(=O)[nH]1` (stereo not drawn) [EC20] as the compound, how does the IC50 [1] read?
A: 128 nM

Q: And the “RA (relative affinity)” value [1]?
A: 0.92

Q: And the Kd [2]?
A: ~3 nM

Q: With `Nc1nc2ncc(CNc3ccc(C(=O)N[C@H](CCC(=O)NC[C@@H]4[NH2+][Re-]56(=[O])[S]C[C@@H](C(=O)O)[N]5C(=O)[C@H](CC(=O)O)[N]6C4=O)C(=O)O)cc3)nc2c(=O)[nH]1` (single isomer, unassigned; isomer 1) [EC20:Re isomer 1] as the compound, how does the IC50 [1] read?
A: 83 nM

Q: And the “RA (relative affinity)” value [1]?
A: 1.42

Q: And the “RA (relative affinity)” value ([1]; listed as Re-EC20 isomer A)?
A: 1.42

Q: With `Nc1nc2ncc(CNc3ccc(C(=O)N[C@H](CCC(=O)NC[C@H]4[NH2+][99Tc-]56(=[O])[S]C[C@H](C(=O)O)[N]5C(=O)[C@@H](CC(=O)O)[N]6C4=O)C(=O)O)cc3)nc2c(=O)[nH]1` [^99mTc-EC53] as the compound, how does the “Tumor/Blood, Average” value ([3]; 99mTc-EC53 alone) read?
A: 31.4

Q: What about the “Tumor/Kidney, Average” value ([3]; 99mTc-EC53 alone) of the same compound?
A: 0.2

Q: And the “Tumor/Liver, Average” value ([3]; 99mTc-EC53 alone)?
A: 3.4

Q: And the “Tumor/Muscle, Average” value ([3]; 99mTc-EC53 alone)?
A: 17.1

Q: What about the “Tumor, Average” value ([3]; 99mTc-EC53 alone, 50.0 ug/kg) of the same compound?
A: 11.77 % ID/g

Q: And the “blood, Average” value ([3]; 99mTc-EC53 alone, 50.0 ug/kg)?
A: 0.38 % ID/g

Q: And the “heart, Average” value ([3]; 99mTc-EC53 alone, 50.0 ug/kg)?
A: 1.09 % ID/g

Q: What about the “intestine, Average” value ([3]; 99mTc-EC53 alone, 50.0 ug/kg) of the same compound?
A: 3.53 % ID/g

Q: What about the “kidney, Average” value ([3]; 99mTc-EC53 alone, 50.0 ug/kg) of the same compound?
A: 77.99 % ID/g

Q: And the “liver, Average” value ([3]; 99mTc-EC53 alone, 50.0 ug/kg)?
A: 3.86 % ID/g

Q: And the “lung, Average” value ([3]; 99mTc-EC53 alone, 50.0 ug/kg)?
A: 0.89 % ID/g

Q: What about the “muscle, Average” value ([3]; 99mTc-EC53 alone, 50.0 ug/kg) of the same compound?
A: 0.76 % ID/g

Q: What about the “spleen, Average” value ([3]; 99mTc-EC53 alone, 50.0 ug/kg) of the same compound?
A: 0.67 % ID/g

Q: What about the “stomach, Average” value ([3]; 99mTc-EC53 alone, 50.0 ug/kg) of the same compound?
A: 1.04 % ID/g

Q: And the “accumulation in FR-positive KB tumors and kidneys on co-administration of free folate” value ([3]; about a 100-fold excess of free folate)?
A: blocked

Q: What about the “Tumor/Blood, Average” value ([3]; plus EC53 (cold)) of the same compound?
A: 4.5

Q: What about the “Tumor/Kidney, Average” value ([3]; plus EC53 (cold)) of the same compound?
A: 0.14

Q: And the “Tumor/Liver, Average” value ([3]; plus EC53 (cold))?
A: 0.3

Q: What about the “Tumor/Muscle, Average” value ([3]; plus EC53 (cold)) of the same compound?
A: 8.5

Q: What about the “Tumor/Blood, Average” value ([3]; plus Folic Acid) of the same compound?
A: 2.2

Q: What about the “Tumor/Kidney, Average” value ([3]; plus Folic Acid) of the same compound?
A: 0.07

Q: What about the “Tumor/Liver, Average” value ([3]; plus Folic Acid) of the same compound?
A: 0.1

Q: What about the “Tumor/Muscle, Average” value ([3]; plus Folic Acid) of the same compound?
A: 5.2

Q: For “^99mTc-12-amino-3,3,9,9-tetramethyl-5-oxa-4,8 diaza-2,10-dodecanedinoe dioxime (OXA) folate conjugate”, which “tracer uptake in a KB tumor” value [4] is on record?
A: ~7 % ID/g
